The values that follow are results of earlier work, collected in patent US20090099301A1, “MOLECULAR IMPRINTINGS FOR RECOGNITION IN AQUEOUS MEDIA, METHODS FOR PREPARING SAME AND USES THEREOF” (POLYINTELL, priority 2006, published 2009).

The conditions of the data set: basic medium (pH 11).

As to `CC(C)NCC(O)COc1cccc2ccccc12` (stereo not shown) [propranolol], the solubility in water result is “insoluble”.
